What was measured:
Assay type in all cases: in vivo
[1] = tested on: Zymoseptoria tritici; test: Test E: preventive spray on wheat seedlings, wheat leaf blotch, visual disease rating; settings: for pest or weed control at 250 ppm: Zymoseptoria tritici
Text: (§1) General protocol for preparing test solutions for Tests AG: the test compounds were first dissolved in acetone in an amount equal to 3% of the final volume and then suspended at the desired concentration (in ppm) in acetone and purified water (50/50 mix by volume) containing the surfactant PEG400 (polyhydric alcohol esters). The resulting test suspensions were then used in Tests AG. Compounds were sprayed at a concentration of 250 ppm or other indicated rate to the point of run-off on the test plants. The test solution was sprayed to the point of run-off on wheat seedlings. […] A dash (-) indicates no test results.

[2] = tested on: Phakopsora pachyrhizi; test: Test A: preventive spray on soybean seedlings, Asian soybean rust, visual disease rating; settings: for pest or weed control at 250 ppm: Phakopsora pachyrhizi
[3] = tested on: Phytophthora infestans; test: whole plant or invertebrate; settings: for Test D disease control rating: tomato seedlings; for pest or weed control at 250 ppm: Phytophthora infestans, in Solanum lycopersicum, read-out: Test D disease control rating
[4] = tested on: Puccinia recondita f. sp. tritici; test: Test F: preventive spray on wheat seedlings, wheat leaf rust, visual disease rating; settings: for pest or weed control at 250 ppm: Puccinia recondita
Text: as §1, with “seedlings. The following day the seedlings were inoculated with a spore suspension of Puccinia recondita f. sp. tritici;” for “seedlings.”

[5] = tested on: Erysiphe graminis f. sp. tritici; test: Test G: preventive spray on wheat seedlings, wheat powdery mildew, visual disease rating; settings: for pest or weed control at 250 ppm: Blumeria graminis, 192 h
Text: as §1

[6] = tested on: Botrytis cinerea; test: Test C: preventive spray on tomato seedlings, gray mold, visual disease rating; settings: for pest or weed control at 250 ppm: Botrytis cinerea
Text: as §1, with “tomato” for “wheat”

[7] = 250 ppm, 100 = 100% disease control, 0 = no control

SMILES: Cn1ncc(Cl)c(C(=O)Nc2ccccc2-c2ccc(Cl)cc2)c1=O [Compound 33]
- Test E disease control rating [1, 7]: 0%
- Test A disease control rating [2, 7]: 48%
- Test D disease control rating [3, 7]: 0%
- Test F disease control rating [4, 7]: 97%
- Test G disease control rating [5, 7]: 0%
- Test C disease control rating [6, 7]: 0%

SMILES: COc1ccccc1NC(=O)c1c(O)cnn(C)c1=O [Compound 34]
- Test E disease control rating [1, 7]: 0%
- Test A disease control rating [2, 7]: 0%
- Test D disease control rating [3, 7]: 0%
- Test F disease control rating [4, 7]: 80%
- Test G disease control rating [5, 7]: 0%
- Test C disease control rating [6, 7]: 0%

SMILES: Cn1ncc(O)c(C(=O)Nc2ccccc2Br)c1=O [Compound 35]
- Test E disease control rating [1, 7]: 0%
- Test A disease control rating [2, 7]: 0%
- Test D disease control rating [3, 7]: 71%
- Test F disease control rating [4, 7]: 98%
- Test G disease control rating [5, 7]: 0%
- Test C disease control rating [6, 7]: 0%

SMILES: Cn1ncc(O)c(C(=O)Nc2ccccc2F)c1=O [Compound 36]
- Test E disease control rating [1, 7]: 0%
- Test A disease control rating [2, 7]: 31%
- Test D disease control rating [3, 7]: 94%
- Test F disease control rating [4, 7]: 98%
- Test G disease control rating [5, 7]: 78%
- Test C disease control rating [6, 7]: 0%

SMILES: Cn1ncc(O)c(C(=O)Nc2ccc(F)cc2)c1=O [Compound 40]
- Test E disease control rating [1, 7]: 96%
- Test A disease control rating [2, 7]: 56%
- Test D disease control rating [3, 7]: 73%
- Test F disease control rating [4, 7]: 95%
- Test G disease control rating [5, 7]: 92%
- Test C disease control rating [6, 7]: 96%

SMILES: Cn1ncc(Cl)c(C(=O)Nc2ccc(OC(F)(F)F)cc2)c1=O [Compound 41, 5-Chloro-2,3-dihydro-2-methyl-3-oxo-N-[4-(trifluoromethoxy)phenyl]-4-pyridazinecarboxamide]
- pest or weed control at 250 ppm [1, 7]: 97%
- pest or weed control at 250 ppm [2, 7]: 87%
- pest or weed control at 250 ppm [3]: 0%
- pest or weed control at 250 ppm [4, 7]: 89%
- pest or weed control at 250 ppm [5, 7]: 0%
- pest or weed control at 250 ppm [6, 7]: 0%

SMILES: Cn1ncc(Br)c(C(=O)Nc2ccc(OC(F)(F)F)cc2)c1=O [Compound 42, 5-Bromo-2,3-dihydro-2-methyl-3-oxo-N-[4-(trifluoromethoxy)phenyl]-4-pyridazinecarboxamide]
- pest or weed control at 250 ppm [1, 7]: 99%
- pest or weed control at 250 ppm [2, 7]: 79%
- pest or weed control at 250 ppm [3]: 0%
- pest or weed control at 250 ppm [4, 7]: 86%
- pest or weed control at 250 ppm [5, 7]: 0%
- pest or weed control at 250 ppm [6, 7]: 0%

SMILES: Cn1ncc(Cl)c(C(=O)Nc2ccc(F)cc2)c1=O [Compound 43]
- Test E disease control rating [1, 7]: 4%
- Test A disease control rating [2, 7]: 78%
- Test D disease control rating [3, 7]: 68%
- Test F disease control rating [4, 7]: 97%
- Test G disease control rating [5, 7]: 0%
- Test C disease control rating [6, 7]: 79%

SMILES: Cn1ncc(O)c(C(=O)Nc2cccc(-c3ccc(Cl)cc3)c2)c1=O [Compound 44]
- Test E disease control rating [1, 7]: 0%
- Test A disease control rating [2, 7]: 0%
- Test D disease control rating [3, 7]: 0%
- Test F disease control rating [4, 7]: 86%
- Test G disease control rating [5, 7]: 0%
- Test C disease control rating [6, 7]: 0%

SMILES: Cn1ncc(O)c(C(=O)Nc2ccc(-c3ccc(F)cc3)cc2)c1=O [Compound 46]
- Test E disease control rating [1, 7]: 0%
- Test A disease control rating [2, 7]: 77%
- Test D disease control rating [3, 7]: 40%
- Test F disease control rating [4, 7]: 80%
- Test G disease control rating [5, 7]: 0%
- Test C disease control rating [6, 7]: 16%

SMILES: Cn1ncc(O)c(C(=O)Nc2ccc(OC(F)F)cc2)c1=O [Compound 47, N-[4-(Difluoromethoxy)phenyl]-2,3-dihydro-5-hydroxy-2-methyl-3-oxo-4-pyridazinecarboxamide]
- pest or weed control at 250 ppm [1, 7]: 77%
- pest or weed control at 250 ppm [2, 7]: 38%
- pest or weed control at 250 ppm [3]: 88%
- pest or weed control at 250 ppm [4, 7]: 99%
- pest or weed control at 250 ppm [5, 7]: 0%
- pest or weed control at 250 ppm [6, 7]: 0%

SMILES: Cn1ncc(O)c(C(=O)Nc2ccc(S(C)(=O)=O)cc2)c1=O [Compound 49]
- Test E disease control rating [1, 7]: 0%
- Test A disease control rating [2, 7]: 0%
- Test D disease control rating [3, 7]: 0%
- Test F disease control rating [4, 7]: 68%
- Test G disease control rating [5, 7]: 0%
- Test C disease control rating [6, 7]: 0%

SMILES: Cn1ncc(O)c(C(=O)Nc2ccc(C(F)(F)F)cc2F)c1=O [Compound 50, N-[2-Fluoro-4-(trifluoromethyl)phenyl]-2,3-dihydro-5-hydroxy-2-methyl-3-oxo-4-pyridazinecarboxamide]
- pest or weed control at 250 ppm [1, 7]: 98%
- pest or weed control at 250 ppm [2, 7]: 0%
- pest or weed control at 250 ppm [3]: 99%
- pest or weed control at 250 ppm [4, 7]: 100%
- pest or weed control at 250 ppm [5, 7]: 98%
- pest or weed control at 250 ppm [6, 7]: 85%

SMILES: Cn1ncc(Cl)c(C(=O)Nc2ccc(OC(F)(F)F)cc2F)c1=O [Compound 51]
- Test E disease control rating ([1]; 125 ppm): 89%
- Test A disease control rating ([2]; 125 ppm): 99%
- Test D disease control rating ([3]; 125 ppm): 57%
- Test F disease control rating ([4]; 125 ppm): 96%
- Test G disease control rating ([5]; 125 ppm): 0%
- Test C disease control rating ([6]; 125 ppm): 97%

SMILES: Cn1ncc(Cl)c(C(=O)Nc2ccc(C(F)(F)F)cc2F)c1=O [Compound 52]
- Test E disease control rating ([1]; 160 ppm): 99%
- Test A disease control rating ([2]; 160 ppm): 97%
- Test D disease control rating ([3]; 160 ppm): 90%
- Test F disease control rating ([4]; 160 ppm): 99%
- Test G disease control rating ([5]; 160 ppm): 39%
- Test C disease control rating ([6]; 160 ppm): 59%

SMILES: Cn1ncc(OC(=O)C(C)(C)C)c(C(=O)Nc2ccc(OC(F)(F)F)cc2)c1=O [Compound 53]
- Test E disease control rating [1, 7]: 79%
- Test A disease control rating [2, 7]: 79%
- Test D disease control rating [3, 7]: 99%
- Test F disease control rating [4, 7]: 100%
- Test G disease control rating [5, 7]: 98%
- Test C disease control rating [6, 7]: 39%

SMILES: Cc1cccc(NC(=O)c2c(O)cnn(C)c2=O)c1 [Compound 54]
- Test E disease control rating [1, 7]: 0%
- Test A disease control rating [2, 7]: 0%
- Test D disease control rating [3, 7]: 0%
- Test F disease control rating [4, 7]: 95%
- Test G disease control rating [5, 7]: 0%
- Test C disease control rating [6, 7]: 0%

SMILES: COc1cccc(NC(=O)c2c(O)cnn(C)c2=O)c1 [Compound 55]
- Test E disease control rating [1, 7]: 0%
- Test A disease control rating [2, 7]: 0%
- Test D disease control rating [3, 7]: 0%
- Test F disease control rating [4, 7]: 89%
- Test G disease control rating [5, 7]: 0%
- Test C disease control rating [6, 7]: 0%

SMILES: Cn1ncc(O)c(C(=O)Nc2cccc(C(F)(F)F)c2)c1=O [Compound 56]
- Test E disease control rating [1, 7]: 0%
- Test A disease control rating [2, 7]: 0%
- Test D disease control rating [3, 7]: 61%
- Test F disease control rating [4, 7]: 92%
- Test G disease control rating [5, 7]: 35%
- Test C disease control rating [6, 7]: 0%

SMILES: Cn1ncc(O)c(C(=O)Nc2cccc(OC(F)(F)F)c2)c1=O [Compound 57]
- Test E disease control rating [1, 7]: 8%
- Test A disease control rating [2, 7]: 0%
- Test D disease control rating [3, 7]: 0%
- Test F disease control rating [4, 7]: 84%
- Test G disease control rating [5, 7]: 98%
- Test C disease control rating [6, 7]: 0%

SMILES: COc1cnn(C)c(=O)c1C(=O)Nc1ccc(Br)cc1 [Compound 59]
- Test E disease control rating [1, 7]: 0%
- Test A disease control rating [2, 7]: 0%
- Test D disease control rating [3, 7]: 0%
- Test F disease control rating [4, 7]: 0%
- Test G disease control rating [5, 7]: 0%
- Test C disease control rating [6, 7]: 0%

SMILES: O=C(Nc1ccc(OC(F)(F)F)cc1)c1c(O)cnn(-c2ccccc2)c1=O [Compound 60]
- Test E disease control rating [1, 7]: 92%
- Test A disease control rating [2, 7]: 0%
- Test D disease control rating [3, 7]: 88%
- Test F disease control rating [4, 7]: 88%
- Test G disease control rating [5, 7]: 57%
- Test C disease control rating [6, 7]: 0%

SMILES: Cn1ncc(Cl)c(C(=O)Nc2cccc(OC(F)(F)F)c2)c1=O [Compound 63]
- Test E disease control rating ([1]; 270 ppm): 98%
- Test A disease control rating ([2]; 270 ppm): 59%
- Test D disease control rating ([3]; 270 ppm): 53%
- Test F disease control rating ([4]; 270 ppm): 86%
- Test G disease control rating ([5]; 270 ppm): 48%
- Test C disease control rating ([6]; 270 ppm): 53%

SMILES: Cn1ncc(Cl)c(C(=O)Nc2cccc(C(F)(F)F)c2)c1=O [Compound 64]
- Test E disease control rating ([1]; 265 ppm): 94%
- Test A disease control rating ([2]; 265 ppm): 92%
- Test D disease control rating ([3]; 265 ppm): 53%
- Test F disease control rating ([4]; 265 ppm): 91%
- Test G disease control rating ([5]; 265 ppm): 0%
- Test C disease control rating ([6]; 265 ppm): 76%

SMILES: O=C(Nc1ccc(OC(F)(F)F)cc1)c1c(O)cnn(-c2cccc(C(F)(F)F)c2)c1=O [Compound 71]
- Test E disease control rating [1, 7]: 0%
- Test A disease control rating [2, 7]: 12%
- Test D disease control rating [3, 7]: 0%
- Test F disease control rating [4, 7]: 0%
- Test G disease control rating [5, 7]: 0%
- Test C disease control rating [6, 7]: 0%

— patent US20190133128A1, “Fungicidal pyridazinones” (FMC Corporation, priority 2017, published 2019)
